The results in this text go back to patent US20050043363A1, “Efficient microbial preparation of capravirine metabolites M4 and M5” (AGOURON PHARMACEUTICALS, INC., priority 2003, published 2005).

Series [1] can be described thus: Cytotoxicity determined measuring XTT dye reduction. The class given is cell-based. The conditions noted are these: compound-treated cells, 50% cytotoxicity concentration, uninfected cells. As for the experimental part:
The term “CC50”, as used herein, means the 50% cytotoxicity concentration, which is calculated as the concentration of compound that decreases the viability of uninfected, compound-treated cells to 50% of that of uninfected, compound-free cells.

For another series, the system named is HIV. The experiment in a line: Antiviral activity determined measuring XTT dye reduction. The conditions noted are these: for EC50 / EC90: Human immunodeficiency virus 1, antiviral activity, XTT dye reduction, mean of 2-4 experiments (M4, M5) or 9 experiments (CPV). The class given is cell-based. From the text: The term “EC50”, as used herein, means the statistically derived concentration of a toxicant that can be expected to cause a defined non-lethal effect in 50% of a given population of organisms under defined conditions.
The term “EC90”, as used herein, means the statistically derived concentration of a toxicant that can be expected to cause a defined non-lethal effect in 90% of a given population of organisms under defined conditions.
In general terms: Tetrazolium dyes change colour on reduction, which living cells bring about.

Some results are limits rather than exact numbers.

For the compound `CC(CO)c1nc(COC(N)=O)n(Cc2ccncc2)c1Sc1cc(Cl)cc(Cl)c1` (stereo not drawn) [M5], in series [1], the cytotoxic concentration (CC50) was over 320000 nM. Moreover, in the series with HIV, the “TI (Therapeutic index = CC50/EC50)” value is recorded as >6,882, the EC50 was found to be 47 nM and the EC90 was determined as 110 nM.
`CC(C)(O)c1nc(COC(N)=O)n(Cc2ccncc2)c1Sc1cc(Cl)cc(Cl)c1` [M4] gave a CC50 in series [1] of over 320000 nM. In the series on HIV, the “TI (Therapeutic index = CC50/EC50)” value was >6,737; the midpoint of the response, the EC50, lay at 48 nM; the EC90 was 110 nM.
Taken in the same sequence, the figures for `CC(C)c1nc(COC(N)=O)n(Cc2ccncc2)c1Sc1cc(Cl)cc(Cl)c1` [CPV, 2-carbamoyloxymethyl-5-(3,5-dichlorophenyl)thio-4-isopropyl-1-(4-pyridyl)methyl-1H-imidazole, reference compound] were 69000 nM, 45,667, 1.5 nM and 3.2 nM.

As usually defined, the CC50 is the concentration at which the toxic effect on the cells reaches its halfway point. Lower therefore signals greater toxicity to the cells. Usually EC50 stands for the concentration needed to bring the measured effect to its halfway point. Low values mean higher potency in that assay, high ones lower potency in that assay. What is called EC90 is the concentration at which the effect reaches the 90% level.
